The subject of test [1] is Candida krusei. Put plainly: Broth microdilution MIC, yeast (Example 13). The class given is cell-based. To be noted: C. krusei ATCC 6258 (QC, Table 110), comparators, single value. On the technique in general: Dilution methods test growth across graded concentrations, often in twofold steps.
Test [2] relates to Candida spp. Particulars: C. parapsilosis ATCC 22019, CLSI established QC range, cited from earlier work.
A further test has as its system S. aureus ATCC 29213. Kind of test: Broth microdilution MIC, QC organism (Example 13, Table 110). The format is cell-based, Staphylococcus aureus. From the text: (§1) MECs were only reported where observed.
The test system of the next test is Aspergillus spp. Put plainly: Broth microdilution MIC/MEC, mold (Example 13). The format is cell-based. To be noted: MEC.
The subject of a further test is E. coli ATCC 25922. Put plainly: Broth microdilution MIC, QC organism (Example 13, Table 110). The class given is cell-based, Escherichia coli.
Text: as §1

Test [3] relates to Candida spp. Kind of test: Broth microdilution MIC, yeast (Example 13), group statement and QC. The class given is cell-based. To be noted: C. parapsilosis ATCC 22019, comparators, single value.
The test system of test [4] is Candida krusei. To be noted: C. krusei ATCC 6258, CLSI established QC range, cited from earlier work.
[5] abbreviates: A. flavus ATCC 204304 (QC, Table 110).
Where [6] appears, read: A. fumigatus ATCC MYA-3626 (QC, Table 110).

Structures are written as SMILES. Values after ≈ are worked out from the molar mass of the structure shown. *1 amine or outer side, *2 acyl side, *3 side chain or, on linkers, in order; H or OH if unused. Where a SMILES comes first, the peptide text is derived from it. Bridges are numbered along the chain shown (N, C = ends). [ ]: non-standard residue; d: D form. The star is where a group is joined. hTyr(3S-OH,4S-OH,3'-OSO3H) = N[C@H](C(=O)O)[C@H](O)[C@@H](O)c1ccc(O)c(OS(=O)(=O)O)c1; Orn(4R-OH,5R-OH) = O=C([C@H](C[C@@H](O)[C@@H](O)N[*:3])N[*:1])[*:2]; Pro(3S-OH,4S-Me) = C[C@H]1CN[C@H](C(=O)O)[C@H]1O; X1 = CCCCCOc1ccc(-c2cc(-c3ccc(C(=O)*)cc3)no2)cc1; Gln(3R-OH) = NC(=O)C[C@@H](O)[C@H](N)C(=O)O; Hyp = O=C(O)[C@@H]1C[C@@H](O)CN1

Regarding `CC[C@H](C)C[C@H](C)CCCCCCCCC(=O)N[C@H]1C[C@@H](O)[C@@H](NCCN)NC(=O)[C@@H]2[C@@H](O)CCN2C(=O)[C@H]([C@H](O)CCN)NC(=O)[C@H]([C@H](O)[C@@H](O)c2ccc(O)cc2)NC(=O)[C@@H]2C[C@@H](O)CN2C(=O)[C@H]([C@@H](C)O)NC1=O` [Caspofungin], the MIC 24 hr in the test on Candida krusei [1] was 0.25 µg/mL (≈ 0.229 µM); against S. aureus ATCC 29213, more than 64 µg/mL; in the test with E. coli ATCC 25922, more than 64 µg/mL; with Candida spp. [3], 0.25 µg/mL (≈ 0.229 µM). The values for the MIC 48 hr in the test on Candida krusei [1] and against Candida spp. [3] were 0.25 µg/mL (≈ 0.229 µM) and 0.5 µg/mL (≈ 0.457 µM), respectively. For the same compound, the “QC Range 24 hr” value is given as 0.25-1 in the test on Candida spp. [2] and 0.12-1 in the test on Candida krusei [4]. The “QC Range 48 hr” value with Candida spp. [2] is 0.5-4; in the test on Candida krusei [4], 0.25-2. For the same compound, the “MIC 24 hr (MEC)” value against Aspergillus spp. (setting [5]) came to 0.12.

Take `CCCCCOc1ccc(-c2cc(-c3ccc(C(=O)N[C@H]4C[C@@H](O)[C@@H](O)NC(=O)[C@@H]5[C@@H](O)[C@@H](C)CN5C(=O)[C@H]([C@H](O)CC(N)=O)NC(=O)[C@H]([C@H](O)[C@@H](O)c5ccc(O)c(OS(=O)(=O)O)c5)NC(=O)[C@@H]5C[C@@H](O)CN5C(=O)[C@H]([C@@H](C)O)NC4=O)cc3)no2)cc1` [Micafungin] (X1-[Orn(4R-OH,5R-OH)]T[Hyp][hTyr(3S-OH,4S-OH,3'-OSO3H)][Gln(3R-OH)][Pro(3S-OH,4S-Me)]; lactam 1-C): the MIC 24 hr is 0.5 µg/mL (≈ 0.394 µM) in the test with Candida krusei [1], more than 64 µg/mL in the test on S. aureus ATCC 29213, more than 64 µg/mL against E. coli ATCC 25922 and 0.5 µg/mL (≈ 0.394 µM) with Candida spp. [3]. Besides, the MIC 48 hr is 0.5 µg/mL (≈ 0.394 µM) in the test on Candida krusei [1] and 2 µg/mL (≈ 1.57 µM) with Candida spp. [3]. Also, the “QC Range 24 hr” value in the test on Candida spp. [2] is 0.5-2; with Candida krusei [4] it was 0.12-0.5. The results for the “QC Range 48 hr” value with Candida spp. [2] and with Candida krusei [4] were 0.5-4 and 0.12-0.5, respectively. Besides, the “MIC 24 hr (MEC)” value is recorded as 0.06 with Aspergillus spp. (setting [5]) and 0.03 against Aspergillus spp. (setting [6]). The “MIC 48 hr (MEC)” value in the test on Aspergillus spp. (setting [5]) and with Aspergillus spp. (setting [6]) was 0.008 in each case.

Values taken from US12186283B2, “Bismuth-thiol compositions and methods of use” (Microbion Corporation, priority 2018, dated 2025).
